This series has as its system GENE-TOX genotoxicity assays, various organisms and cells. In words: GENE-TOX mutagenicity studies. Particulars: for call: Assay Type: In vivo carcinogenicity studies.
Where [1] appears, read: Species/Cell Type: Drosophila melanogaster, Assay Type: Sex-linked recessive lethal gene mutation, Assay Code: SRL+, Evaluation Type: Evaluation A (Pre-1980).
Where [2] appears, read: Species/Cell Type: Escherichia coli polA (W3119 vs P3478), Assay Type: Rec-assay, DNA effects (bacterial DNA repair), Assay Code: RE1+, Evaluation Type: Evaluation A (Pre-1980).
Setting [3] is: Species/Cell Type: Nonhuman, Assay Type: Sister-chromatid exchange (SCE) in vitro, Assay Code: SC2+D, Dose Response: With dose response, Evaluation Type: Evaluation B (Post-1980).
The mark [4] stands for this setting: Species/Cell Type: Nonhuman, Assay Type: Sister-chromatid exchange (SCE) in vivo, Assay Code: SC3+, Evaluation Type: Evaluation B (Post-1980).
[5] abbreviates: Species/Cell Type: Plant, Assay Type: Micronucleus test, chromosome aberrations, Assay Code: MNP+, Evaluation Type: Evaluation A (Pre-1980).
[6] abbreviates: Species/Cell Type: Salmonella typhimurium, Assay Type: Forward and reverse gene mutation, host-mediated assay, Assay Code: HMA+, Evaluation Type: Evaluation A (Pre-1980).
[7] abbreviates: Species/Cell Type: Salmonella typhimurium (one or more of the five standard strains: TA98, TA100, TA1535, TA1537, and TA1538), Assay Type: Histidine reverse gene mutation, Ames assay, Assay Code: SALT, Evaluation Type: Evaluation A (Pre-1980).
Where [8] appears, read: Species/Cell Type: Human lymphocytes, Assay Type: Sister-chromatid exchange (SCE) in vitro, Assay Code: SCL+D, Dose Response: With dose response, Evaluation Type: Evaluation B (Post-1980).
The mark [9] stands for this setting: Species/Cell Type: Human, Assay Type: Sister-chromatid exchange (SCE) in vitro, Assay Code: SC1+D, Dose Response: With dose response, Evaluation Type: Evaluation B (Post-1980).
Setting [10] is: Species/Cell Type: Salmonella typhimurium (one or more of the five standard strains: TA98, TA100, TA1535, TA1537, and TA1538), Assay Type: Histidine reverse gene mutation, Ames assay, Assay Code: SAL+, Evaluation Type: Evaluation A (Pre-1980).

The structures appear in SMILES notation. Active and inactive are the calls of the source. The rule behind the calls is not given here.

For 13 compounds, mutagenic call and call results are on record in PubChem BioAssay AID1259408 (Genetic Toxicology Data Bank (GENE-TOX), 2018).

Consider `BrCCBr`, for which the mutagenic call (Species/Cell Type: Aspergillus nidulans, Assay Type: Forward gene mutation, Assay Code: ASF+, Evaluation Type: Evaluation A (Pre-1980)) was “active; positive”; the mutagenic call (Species/Cell Type: Chinese hamster ovary (CHO) cells, Assay Type: Forward gene mutation at the HPRT locus, Assay Code: CHO+, Evaluation Type: Evaluation B (Post-1980)) was “active; positive”; the mutagenic call under setting [1] is “active; positive”; the mutagenic call under setting [2] was “active; positive”; the mutagenic call (Species/Cell Type: Fischer rat embryo (RLV/1706) cells, Assay Type: Cell transformation, viral enhanced, Assay Code: CTR+, Evaluation Type: Evaluation A (Pre-1980)) was “active; positive”; the mutagenic call (Species/Cell Type: Human lymphocytes, Assay Type: Sister-chromatid exchange (SCE) in vitro, Assay Code: SCL+, Evaluation Type: Evaluation B (Post-1980)) was “active; positive”. The mutagenic call by setting is: (Species/Cell Type: Human, Assay Type: Sister-chromatid exchange (SCE) in vitro, Assay Code: SC1+, Evaluation Type: Evaluation B (Post-1980)) “active; positive”; (Species/Cell Type: Human, Sex: Male, Assay Type: Sperm morphology, Assay Code: SPH+, Evaluation Type: Evaluation A (Pre-1980)) “active; positive”; (Species/Cell Type: Mammalian polychromatic erythrocytes, Assay Type: Micronucleus test, chromosome aberrations, Assay Code: MNTT, Evaluation Type: Evaluation B (Post-1980)) “no conclusion”; (Species/Cell Type: Mouse germ cells, Sex: Male, Assay Type: Unscheduled DNA synthesis (UDS) in vivo, DNA effects, Assay Code: UDT-, Evaluation Type: Evaluation A (Pre-1980)) “inactive; negative”; (Species/Cell Type: Mouse lymphoma (L5178Y) cells, Assay Type: Forward gene mutation at the thymidine kinase (TK) locus, chromosome aberrations, Assay Code: L51+, Evaluation Type: Evaluation A (Pre-1980)) “active; positive”; (Species/Cell Type: Neurospora crassa, Assay Type: Forward gene mutation, Assay Code: NEF+, Evaluation Type: Evaluation A (Pre-1980)) “active; positive”. In addition, the mutagenic call was “active; positive” under setting [3]; “active; positive” under setting [4]; “active; positive” under setting [5]; “active; positive” (Species/Cell Type: Saccharomyces cerevisiae, Assay Type: Mitotic recombination or gene conversion, Assay Code: YEC+, Evaluation Type: Evaluation A (Pre-1980)); “no conclusion” (Species/Cell Type: Salmonella typhimurium, Assay Type: Forward and reverse gene mutation, body fluid assay, Assay Code: BFUT, Evaluation Type: Evaluation A (Pre-1980)); “active; positive” under setting [6]. Besides, the mutagenic call (Species/Cell Type: Syrian hamster embryo (SA7/SHE) cells, Assay Type: Cell transformation, viral enhanced, Assay Code: CT7+, Evaluation Type: Evaluation A (Pre-1980)) is “active; positive”; the mutagenic call (Species/Cell Type: Tradescantia species, Assay Type: Chromosome aberrations, Assay Code: TRC+D, Dose Response: With dose response, Evaluation Type: Evaluation A (Pre-1980)) was “active; positive”; the mutagenic call (Species/Cell Type: Tradescantia species, Assay Type: Gene mutation, Assay Code: TRM+D, Dose Response: With dose response, Evaluation Type: Evaluation A (Pre-1980)) is “active; positive”. Besides, the call (Species/Cell Type: Nonhuman, Assay Code: CCG+, Evaluation Type: Evaluation A (Pre-1980)) is “active; positive”.
Take `CC(=O)C=O`: the mutagenic call under setting [3] was “active; positive”.
For the compound `CS(=O)(=O)c1ccc([C@H](O)[C@H](CO)NC(=O)C(Cl)Cl)cc1`, the mutagenic call under setting [7] was “no conclusion”.
`ClC/C=C/CCl`: under setting [1], the mutagenic call is “active; positive”.
As for `COc1ccccc1O`, the mutagenic call was “active; positive” (Species/Cell Type: Allium cepa, Assay Type: Chromosome aberrations, Assay Code: ALC+, Evaluation Type: Evaluation A (Pre-1980)); “active; positive” under setting [8]; “active; positive” under setting [9]; “no conclusion” under setting [7].
With `[Cl][Ce]([Cl])[Cl]`, where the note is “Species/Cell Type: Bacillus subtilis (H17 vs M45), Assay Type: Rec-assay, spot test, DNA effects (bacterial DNA repair), Assay Code: REW-, Evaluation Type: Evaluation A (Pre-1980)”, the mutagenic call is “inactive; negative”.
For the compound `CCN(CCCO)N=O`, the mutagenic call (Species/Cell Type: Salmonella typhimurium (one or more of the five standard strains: TA98, TA100, TA1535, TA1537, and TA1538), Assay Type: Histidine reverse gene mutation, Ames assay, Assay Code: SAL+*, Activation: With metabolic activation, Evaluation Type: Evaluation A (Pre-1980)) was “active; positive”.
In the case of `C#C[C@]1(O)CC[C@H]2[C@@H]3CCc4cc(CC)ccc4[C@H]3CC[C@@]21C` (tested in a mixture with another compound), the mutagenic call (Species/Cell Type: Rodents, Sex: Male, Assay Type: Dominant lethal test, Assay Code: DLTT, Evaluation Type: Evaluation A (Pre-1980)) is reported as “no conclusion”.
As for `C[n+]1c2ccccc2cc2ccccc21`, the mutagenic call (Species/Cell Type: Saccharomyces cerevisiae, Assay Type: Forward gene mutation, Assay Code: YEFT, Evaluation Type: Evaluation A (Pre-1980)) was “no conclusion”.
Turning to `Nc1ccccc1O`, the mutagenic call under setting [9] was “active; positive”.
For `CC(=O)OCN(Cc1ccccc1)N=O`, the mutagenic call under setting [7] is “no conclusion”.
Regarding `O=S1(=O)CCCCO1`, the mutagenic call reads like this: under setting [2], “active; positive”; (Species/Cell Type: Saccharomyces cerevisiae, Assay Type: Mitotic recombination or gene conversion, Assay Code: YEH+, Evaluation Type: Evaluation A (Pre-1980)) “active; positive”; under setting [10], “active; positive”; under setting [6], “active; positive”; (Species/Cell Type: Schizosaccharomyces pombe, Assay Type: Reverse gene mutation, Assay Code: YEZ+, Evaluation Type: Evaluation A (Pre-1980)) “active; positive”; (Species/Cell Type: Syrian hamster embryo (SHE) cells, Assay Type: Cell transformation, clonal assay, Assay Code: CTC+, Evaluation Type: Evaluation A (Pre-1980)) “active; positive”. Further, for the setting “Species/Cell Type: Nonhuman, Assay Code: CCGT, Evaluation Type: Evaluation A (Pre-1980)”, the call was “no conclusion”.
For the compound `c1ccc(C2CO2)cc1` (stereo not drawn), the mutagenic call by setting is: (Species/Cell Type: Chinese hamster lung (V79) cells, Assay Type: Forward gene mutation at the HPRT or ouabain locus, Assay Code: V79+, Evaluation Type: Evaluation A (Pre-1980)) “active; positive”; under setting [1], “active; positive”; (Species/Cell Type: Escherichia coli WP2 UVRA, Assay Type: Tryptophan reverse gene mutation, Assay Code: WPU+D, Dose Response: With dose response, Evaluation Type: Evaluation A (Pre-1980)) “active; positive”; (Species/Cell Type: Human diploid fibroblasts, Assay Type: Unscheduled DNA synthesis (UDS) in vitro, DNA effects, Assay Code: UDH+, Evaluation Type: Evaluation A (Pre-1980)) “active; positive”; (Species/Cell Type: Human lymphocytes, Assay Type: Micronucleus test in vitro, chromosome aberrations, Assay Code: MN7+, Evaluation Type: Evaluation A (Pre-1980)) “active; positive”; under setting [8], “active; positive”. The mutagenic call runs as follows: under setting [9], “active; positive”; (Species/Cell Type: Mammalian polychromatic erythrocytes, Assay Type: Micronucleus test, chromosome aberrations, Assay Code: MNTT, Evaluation Type: Evaluation A (Pre-1980)) “no conclusion”; under setting [4], “active; positive”; under setting [5], “active; positive”; (Species/Cell Type: Rodents, Sex: Male, Assay Type: Dominant lethal test, Assay Code: DLT-, Evaluation Type: Evaluation A (Pre-1980)) “inactive; negative”; (Species/Cell Type: Saccharomyces cerevisiae, Assay Type: Forward and reverse gene mutation, mitotic recombination and gene conversion, host-mediated assay, Assay Code: HME+, Evaluation Type: Evaluation A (Pre-1980)) “active; positive”. Also, the mutagenic call (Species/Cell Type: Saccharomyces cerevisiae, Assay Type: Mitotic recombination or gene conversion, Assay Code: YEC+*, Activation: With metabolic activation, Evaluation Type: Evaluation A (Pre-1980)) is “active; positive”; the mutagenic call under setting [10] was “active; positive”; the mutagenic call (Species/Cell Type: Schizosaccharomyces pombe, Assay Type: Forward gene mutation, Assay Code: YEY+/-*, Activation: With metabolic activation, Evaluation Type: Evaluation A (Pre-1980)) was “inactive; positive without activation, negative with activation”. The call (Species/Cell Type: Nonhuman, Assay Code: CCG+L, Evaluation Type: Evaluation A (Pre-1980)) was “active; positive”.
